Row | melting point [°C] | Structure (SMILES)
1 | 143 to 147 | CCc1nc2c(cnn2CC)c(NC2CCOCC2)c1CNC(=O)c1cccc(C(=O)NCc2ccc(OC)c(-c3cccc(CN4CCCNCC4)c3)c2)c1
2 | 194 to 196 | CCN1c2nc(Cl)ccc2NC(=O)c2cc(CCc3ccncc3)cnc21
3 | 192 to 194 | O=c1c2cc(O)ccc2oc2cccc(NCCN3CCCC3)c12
4 | 227 to 237 | COc1ccc(NC(=O)c2c(Cl)cccc2Cl)c2nccc(N3CCN(C)C3=O)c12
5 | 195 to 200 | O=C(O)C(=O)c1oc2cccc(OCc3ccc(F)cc3)c2c1O
6 | 68 | CCOC(=O)c1ccc(Oc2ccc(F)cc2)nc1
7 | 254 to 256 | CC(=O)Nc1c(C(=O)c2ccccc2)[nH]c2ccc(N)cc12
8 | 85 to 86 | O=Cc1c(Cl)cc(OCc2ccccc2)cc1OCc1ccccc1
9 | 158 to 160 | COc1ccc(-n2nc(Sc3ccc(C)c(C)c3)c(C)c(C#N)c2=O)cc1
10 | 279 to 281 | O=C(O)COc1cc(C(=O)O)ccc1NC(=O)NC(=O)c1ccc(F)cc1Cl
11 | 138 to 140 | COc1cc(OC)cc(-c2oc3ncnc(Cl)c3c2-c2ccccc2)c1
12 | 126 to 128 | COc1ccccc1N1CCN(CCCOc2cc(C(=O)c3cc4ccccc4[nH]3)ccc2OCc2ccc(C)cc2)CC1
13 | 124 | CC(C)c1ccc(S(=O)(=O)Nc2ncc(C(F)(F)F)cc2I)cc1
14 | 190 to 192 | CCOC(=O)c1c(C=O)c2ccc3oc4ccccc4c3c2n1C
15 | 109 to 110 | O=C1Cc2ccc(-c3ccccc3)cc2O1
16 | 147 to 148 | CCc1ccc2c(=O)c(CO)cn(C)c2c1
17 | 164 to 166 | O=c1oc(=O)n(-c2cccc(F)c2)c2ncccc12
18 | 92 to 93 | COc1ccc(CC2NCCOc3c2cnn(C)c3=O)cc1 (stereo not given)
19 | 114 to 118 | CC[C@H](C)[C@H](O)C(=O)N1CCC(Oc2cc3ncnc(Nc4cccc(Cl)c4F)c3cc2OC)CC1
20 | 47 to 50 | CCCCOc1ccccc1-c1nc(Cl)cc(OCCC(C)C)n1

Row | melting point [°C] | Structure (SMILES)
21 | 180 to 182 | CCOC(=O)COc1ccc(C(=O)Nc2cccc(Cl)c2Sc2ccccc2-c2nnn[nH]2)cc1
22 | 248 to 249 | COc1ccc(-c2nc(-c3ccc(OS(=O)(=O)O)cc3)cs2)cc1OC
23 | 155 to 156 | CCCc1nc2ccc(C(=O)NCc3ccc(N(C)C)cc3)cc2n1Cc1ccccc1Cl
24 | 170 | CCCCc1nc(CCC)nn1Cc1ccc(-c2ccccc2-c2nnn[nH]2)cc1
25 | 118 to 119 | COc1ccccc1CNC(=O)C(=O)NCCc1ccccn1
26 | 108 | CCOC1CCN(C(=O)c2ccc(Cl)c(C3(C)C(=O)N(Cc4ccc(OC)cc4OC)c4ccc(Cl)cc43)c2)CC1 (stereo not given)
27 | 148 to 149 | CCOC(=O)c1cnn2c(-c3ccc(OC)c(OC)c3)ccnc12
28 | 261 to 263 | COc1cc2c(cc1S(=O)(=O)c1ccc(C)cc1)[C@@H](N1CCCCC1=O)[C@H](O)C(C)(C)O2 (relative stereo)
29 | 167 to 171 | CCOC(=O)c1ccc2c(c1)S[C@@H](c1ccc(OC)cc1)[C@@H](OC(C)=O)C(=O)N2CCN(C)C (racemic)
30 | 178 | Cc1cc(-n2cccn2)c2cccc(OCc3c(Cl)ccc(S(=O)(=O)N4CCOCC4)c3Cl)c2n1
31 | 225 to 226 | O=C1NCCN1c1ccc(S(=O)(=O)Nc2ccc(F)c(F)c2)cc1
32 | 144 | CCOC(=O)c1oc(-c2ccc(C)cc2)cc(=O)c1Br
33 | 44 | CCCCCCc1ccc(-c2ccc(-c3ccc(CCCCC)cc3)c(F)c2)s1
34 | 207 to 208 | COc1ccc(CN2C(=O)C3(COc4cc(OC)c(C#N)cc43)c3ccccc32)cc1 (stereo not given)
35 | 60 to 64 | CCCCCCCCCCOc1ccc(-c2nc(-c3c(Cl)cccc3Cl)nn2C)cc1
36 | 61 to 66 | O=C(Nc1ccc(N2CCNCC2)c(C(F)(F)F)c1)c1ccc(F)c(OCc2cccnc2)c1
37 | 119 to 121 | COc1cccc(CCc2c(CCNC(=O)CCCCC(=O)O)ccc(OC)c2OC)c1
38 | 199 | CCOC(=O)c1cn(C2CC2)c2nc3cc(N4CCNC(c5ccc(OC)cc5)C4)c(F)cc3cc2c1=O (racemic)
39 | 127 to 129 | Cc1c(OCc2ccc(F)cc2F)ccn(Cc2cccc(F)c2)c1=O
40 | 67 | CC(=O)CC(C)c1ccc(-c2ccccc2)cc1 (stereo not given)

The remaining lines, values behind:

Row | Structure (SMILES) | melting point [°C]
41 | CCc1cccc(C)c1CNc1cc(C(=O)N(C)C)nc2c1nc(C)n2C | 133 to 136
42 | N#Cc1c(N2CCNCC2)c(F)cc2c(=O)c(C(=O)O)cn(C3CC3)c12 | > 300
43 | CC(=O)c1c[nH]c(C)n1 | 124 to 127
44 | CCC(Oc1cncc(Cl)c1)C(=O)O (stereo not given) | 98 to 101
45 | N#CC(c1ccccc1)(c1ccccc1)C1CN(C2CCCCC2)C1 | 111 to 114
46 | Cn1c([N+](=O)[O-])cnc1-c1nnc2cccnn12 | 235 to 237
47 | Cn1cc(C#N)c(-c2ccc([N+](=O)[O-])o2)n1 | 176 to 178
48 | CCC(=O)Nc1ccc(OC)cc1OC | 63 to 65
49 | CC(C)c1cccc(C(C)C)c1NC(=O)CN1CCN(CCCSc2nc3ccccc3o2)CC1 | 123 to 125
50 | Cn1cc([N+](=O)[O-])nc1CBr | 130 to 132
51 | CC(C)(C)OC(=O)NC[C@H]1CC[C@H](C#N)CC1 | 100 to 101
52 | COC1=CC23CCN(C)C(Cc4ccc(OC)c(Oc5ccccc5)c42)C3=CC1C (stereo not given) | 177 to 178
53 | Cc1c(SCCN2CCOCC2)ccnc1CSc1nc2ccccc2s1 | 91 to 93
54 | COc1ccc2ccccc2c1-c1c(C)c2c(c(C)c1P(c1ccccc1)c1ccccc1)CCC2 | 166
55 | CC(=O)OC1CSC(Oc2ccc3nnn(C)c3c2)C(OC(C)=O)C1OC(C)=O (stereo not given) | 143
56 | CCC(C)(C)NC(=S)Nc1cc(F)cc(Cl)c1 | 116 to 118
57 | NNC1=NCc2c[nH]c3cccc1c23 | 188 to 189
58 | CCCCCOC(=O)CCNCC(O)COc1ccccc1C#N (stereo not given) | 91
59 | O=C(NCCO)C1=CNc2cccnc2S1 | 192 to 195
60 | CC(=O)c1ccc2nc3n(c2c1)CCC(=O)N3 | > 320

Row | Structure (SMILES) | melting point [°C]
61 | CCOC(=O)c1cnc2nc(OCC)ccc2c1Cl | 72 to 75
62 | S=C=Nc1ccc(Sc2nc3ccccc3s2)cc1 | 84.5 to 86
63 | CC12CCC(C1)C1(C)Oc3ccccc3C21C (stereo not given) | 68
64 | Nc1cccc(Cc2nnn[nH]2)c1 | 140
65 | S=C1Nc2ccc(Cl)cc2CS1 | 217 to 222
66 | COc1ccc(CC(C)=O)cc1SC | 74 to 75
67 | CN(C)S(=O)(=O)OCCOc1ccc(-n2ccnc2)cc1 | 120 to 123
68 | c1ccc(Nc2nc(-c3cccs3)nc3ccccc23)cc1 | 137 to 139
69 | COc1ccc(C(=O)Nc2c(Cl)cncc2Cl)cc1OC1COCC1O (stereo not given) | 183 to 185
70 | CCSc1ccnc(Cl)c1C#N | 97 to 98
71 | CCc1c(C)noc1NS(=O)(=O)c1cccc2c(N(C)C)cccc12 | 55 to 85
72 | COC(=O)C(C)Oc1noc2cc(Cl)c([N+](=O)[O-])cc12 (stereo not given) | 98 to 101
73 | C=CCc1cc(C)c2c(c1O)C(C)(C)C(=O)N2 | 141 to 143
74 | COC(=O)CCCCCCCCCCCNC(=O)NC12CC3CC(CC(C3)C1)C2 | 75
75 | Cn1c(CNCC(C)(C)C)cc2cc(NC(=O)c3ccc(C#CC4(O)CCC4)cc3)ccc21 | 160 to 161
76 | COC1=C(OC)C(OC)C(C=CC(=O)O)(OC)C=C1C (stereo not given) | 117 to 118
77 | COc1ccc2c(C(=O)c3ccc(OC4CCCCC4N(C)C)cc3)c(-c3ccc(OCCN4CCCC4)cc3)sc2c1 (stereo not given) | 61 to 64
78 | CCCCCCCc1ccc(-c2ncc(C#N)c(Cl)n2)cc1 | 76.3 to 76.8
79 | CCOC(=O)C1=C(COCCOc2ncccn2)NC(C)=C(C(=O)OC)C1c1ccccc1Cl (stereo not given) | 101
80 | Cc1sc(-c2ccc(Br)cc2)nc1O | 206 to 207

Row | Structure (SMILES) | melting point [°C]
81 | CN(C(=O)c1ccc(Cn2ccc3ncnc-3c2)o1)C1CCCCC1 | 189 to 190
82 | COC(=O)COc1c(Cl)cc(C(=O)CN2CCN(c3ccncc3)CC2)cc1Cl | 149 to 150
83 | CCCCCS(=O)(=O)NC(=O)/C=C/c1ccc(OCCCOC)cc1Oc1ncc(C(F)(F)F)cc1Cl | 116 to 118
84 | O=C(O)Cc1ccc(-c2ccc(C(CC3CCOCC3)c3ccc(S(=O)(=O)C4CC4)cc3)[nH]2)nc1 (stereo not given) | 124 to 127
85 | NC1(C2CCN(c3c(F)cc4c(=O)c(C(=O)O)cn(C5CC5)c4c3F)C2)CC1 (stereo not given) | 227 to 230
86 | OC1(CNCc2ccccc2)CCN(CCCc2c[nH]c3ccc(-n4cnnc4)cc23)C1 (stereo not given) | > 61
87 | CC1CCC(NC(=O)NS(=O)(=O)c2ccc(CCNC(=O)N3C(=O)c4ccccc4C3C)cc2)CC1 (stereo not given) | 212 to 214
88 | CN1C2C=C(c3c[nH]c(-c4ccc(F)cc4)c3-c3ccncc3)CC1CC2 (stereo not given) | 243 to 245
89 | COc1cc2nc(N3CCN(C(=O)C=Cc4ccccn4)CC3)nc(N)c2cc1OC | 235 to 237
90 | CCOC(=O)CCNC(=O)C(=Cc1ccccc1)CSC(=O)c1ccccc1 | < 50
91 | COc1cc2ccc(CCOS(C)(=O)=O)cc2cc1OC | 112 to 113
92 | N[C@H]1CCN(c2cc3c(cc2F)c(=O)c(C(=O)O)cn3-c2nc[nH]n2)C1 | 250 to 260
93 | C=CCC(C(N)=O)C(CC(C)C)C(=O)NC1N=C(c2cccnc2)c2ccccc2N(C)C1=O (stereo not given) | 251 to 253
94 | CN1CCCc2c1cc[nH]c2=O | 260
95 | CCOC(Nc1ccc(C(=O)O)cc1)C(=O)c1ccc(-c2ccccc2)cc1 (stereo not given) | 179
96 | C[C@H](N)C(=O)N[C@@H](C)C(=O)NC(C)(Cc1ccccc1)c1ccccc1 (stereo not given in full) | 161 to 162
97 | C[C@H](NC(=O)c1cccnc1Oc1cccnc1)c1cccs1 | 196 to 198
98 | CS(=O)(=O)CC(=O)NC(=O)N1CC1C#N (stereo not given) | 126 to 128
99 | CC(=O)c1cc(Cl)c(N)c2c1OCCO2 | 133 to 136
100 | CN(C)C(=S)Oc1ccc(Br)cc1C=O | 141 to 143

— a melting point compilation (Tetko et al.; mined from patent text by program, amines drawn as free bases though some values may be those of a salt)
